Results taken from US20240327380A1, “BTK INHIBITORS” (BIOGEN MA INC., priority 2020, published 2024).

Columns and labels:
[1] = test system: CD69 expression on CD19+ B cells in human whole blood; assay: In Vitro whole blood CD69 Assay; format: cell-based; settings: B-cell; human heparinized whole blood, anti-human IgD stimulation overnight, percentage of CD19+ B cells expressing CD69, flow cytometry; read-out: IC50
Experimental: In Vitro whole blood CD69 Assay
Human heparinized venous blood from health donors was aliquoted into 96-well plate and “spiked” with serial dilutions of formula I compounds in DMSO or with DMSO without drug. The final concentration of DMSO in all wells was 0.1%. The plate was incubated at 37° C. for 30 min. Drug-containing samples were stimulated with […] mouse anti-human IgD-dextran (1A62) or […] polyclonal rabbit F(ab′)2 anti-human IgD. Phosphate-buffered saline (PBS) was added to the negative control unstimulated sample and the plates were incubated overnight (18 to 22 hours) at 37° C. Cells were stained with fluorochrome-conjugated anti-CD19 and anti-CD69 antibodies. Lyse/fix solution was used to remove red blood cells by hypotonic lysis and to fix the remaining cells, which were then analyzed by flow cytometry. CD19+ B cells were gated and analyzed for CD69 expression. The percentage of B cells expressing CD69 was plotted versus the log 10 of the concentration of the drug and the best-fit curves (variable Hill slope) were generated to obtain the IC50 value.

[2] = molecular target: T1, active BTK enzyme (Upstate 14-552) (Homo sapiens, UniProt Q06187); assay: In Vitro BTK Kinase Assay: Btk-PolyGAT-LS Assay; format: biochemical; settings: ATP 10 μM, polyGAT 100 nM, BTK 0.25 nM, 30 minutes, TRF readout
T1 construct: purchased Upstate 14-552
Experimental: In Vitro BTK Kinase Assay: Btk-PolyGAT-LS Assay The purpose of the BTK in vitro assay is to determine compound potency against BTK through the measurement of IC50. Compound inhibition is measured after monitoring the amount of phosphorylation of a fluorescein-labeled polyGAT peptide (Invitrogen PV3611) in the presence of active BTK enzyme (Upstate 14-552), ATP, and inhibitor. The BTK kinase reaction was done in a black 96 well plate (costar 3694). For a typical assay, a 24 μL aliquot of a ATP/peptide master mix (final concentration; ATP 10 μM, polyGAT 100 nM) in kinase buffer (10 mM Tris-HCl pH 7.5, 10 mM MgCl2, 200 μM […], 5 mM DTT, 0.01% Triton X-100, and 0.2 mg/ml casein) is added to each well. Next, […] of a 4-fold, 40× compound titration in 100% DMSO solvent is added, followed by adding 15 μL of BTK enzyme mix in 1× kinase buffer (with a final concentration of 0.25 nM). The assay is incubated for 30 minutes before being stopped with 28 μL of a 50 mM EDTA solution. Aliquots (5 μL) of the kinase reaction are transferred to a low volume white 384 well plate (Coming 3674), and 5 μL of a 2× detection buffer (Invitrogen PV3574, with 4 nM Tb-PY20 antibody, Invitrogen PV3552) is added. The plate is covered and incubated for 45 minutes at room temperature. Time resolved fluorescence (TRF) on Molecular Devices M5 (332 nm excitation; 488 nm emission; 518 nm fluorescein emission) is measured. IC50 values are calculated using a four parameter fit with 100% enzyme activity determined from the DMSO control and 0% activity from the EDTA control.

T1 sequence (Q06187 whole entry): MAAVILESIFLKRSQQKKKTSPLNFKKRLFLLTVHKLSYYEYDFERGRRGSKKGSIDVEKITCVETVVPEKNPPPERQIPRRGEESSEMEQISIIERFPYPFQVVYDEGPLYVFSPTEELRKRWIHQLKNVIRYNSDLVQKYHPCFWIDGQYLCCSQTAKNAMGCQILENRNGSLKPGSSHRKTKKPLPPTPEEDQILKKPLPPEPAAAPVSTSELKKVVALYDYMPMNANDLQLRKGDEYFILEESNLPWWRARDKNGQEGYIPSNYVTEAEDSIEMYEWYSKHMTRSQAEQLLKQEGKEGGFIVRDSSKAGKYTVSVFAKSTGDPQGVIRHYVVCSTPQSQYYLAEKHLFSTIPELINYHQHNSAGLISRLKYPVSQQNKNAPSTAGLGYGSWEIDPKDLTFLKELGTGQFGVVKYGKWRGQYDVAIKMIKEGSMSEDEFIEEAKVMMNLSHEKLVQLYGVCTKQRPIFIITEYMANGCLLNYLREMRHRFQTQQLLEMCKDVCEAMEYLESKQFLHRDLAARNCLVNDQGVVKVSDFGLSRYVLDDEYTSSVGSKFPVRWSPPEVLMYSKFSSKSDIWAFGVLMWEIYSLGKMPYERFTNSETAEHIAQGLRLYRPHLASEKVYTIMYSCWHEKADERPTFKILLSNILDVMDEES

Row | IC50 [1] | IC50 [2] | SMILES
1 | 100 to 1000 nM | ≤ 1 nM | C=CC(=O)N(C)C1CCCN(c2cnccc2-c2ccc(CNC(=O)c3cn(C(C)(C)C)nn3)c(C)c2)C1 (stereo not shown) [Example 1, 1-(tert-butyl)-N-(2-methyl-4-(3-(3-(N-methylacrylamido)piperidin-1-yl)pyridin-4-yl)benzyl)-1H-1,2,3-triazole-4-carboxamide]
2 | < 100 nM | ≤ 1 nM | C=CC(=O)N(C)[C@@H]1CCCN(c2cnccc2-c2ccc(CNC(=O)c3cn(C(C)(C)C)nn3)c(C)c2)C1 [Example 22, (R)-1-(tert-butyl)-N-(2-methyl-4-(3-(3-(N-methylacrylamido)piperidin-1-yl)pyridin-4-yl)benzyl)-1H-1,2,3-triazole-4-carboxamide]
3 | 100 to 1000 nM | ≤ 1 nM | C=CC(=O)N(C)C1CCCN(c2cnccc2-c2ccc(CNC(=O)c3cnn(C(C)(C)C)c3)c(C)c2)C1 (stereo not shown) [Example 42, 1-(tert-butyl)-N-(2-methyl-4-(3-(3-(N-methylacrylamido)piperidin-1-yl)pyridin-4-yl)benzyl)-1H-pyrazole-4-carboxamide]
4 | > 1000 nM | 1 to 10 nM | C=CC(=O)N(C)C1CCCN(c2cnccc2-c2ccc(CNC(=O)c3ncn(C(C)(C)C)n3)c(C)c2)C1 (stereo not shown) [Example 40, 1-(tert-butyl)-N-(2-methyl-4-(3-(3-(N-methylacrylamido)piperidin-1-yl)pyridin-4-yl)benzyl)-1H-1,2,4-triazole-3-carboxamide]
5 | < 100 nM | ≤ 1 nM | Cc1cc(-c2ccncc2N2CCN(C(=O)/C=C/CN(C)C)CC2)ccc1CNC(=O)c1noc(C(C)(C)C)n1 [Example 61, (E)-5-(tert-butyl)-N-(4-(3-(4-(4-(dimethylamino)but-2-enoyl)piperazin-1-yl)pyridin-4-yl)-2-methylbenzyl)-1,2,4-oxadiazole-3-carboxamide]
6 | 100 to 1000 nM | 1 to 10 nM | Cc1cc(-c2c(C#N)cncc2N2CCN(C(=O)/C=C/CN(C)C)CC2)ccc1CNC(=O)c1noc(C(C)(C)C)n1 [Example 69, (E)-5-(tert-butyl)-N-(4-(3-cyano-5-(4-(4-(dimethylamino)but-2-enoyl)piperazin-1-yl)pyridin-4-yl)-2-methylbenzyl)-1,2,4-oxadiazole-3-carboxamide]
7 | > 1000 nM | > 10 nM | C=CC(=O)N(C)[C@H]1CCCN(c2cnccc2-c2ccc(CNC(=O)c3cn(C(C)(C)C)nn3)c(C)c2)C1 [Example 15, (S)-1-(tert-butyl)-N-(2-methyl-4-(3-(3-(N-methylacrylamido)piperidin-1-yl)pyridin-4-yl)benzyl)-1H-1,2,3-triazole-4-carboxamide]
8 | 100 to 1000 nM | ≤ 1 nM | C=CC(=O)N1CCN(c2cnccc2-c2ccc(CNC(=O)c3noc(C(C)(C)C)n3)c(C)c2)CC1 [Example 63, N-(4-(3-(4-acryloylpiperazin-1-yl)pyridin-4-yl)-2-methylbenzyl)-5-(tert-butyl)-1,2,4-oxadiazole-3-carboxamide]
9 | < 100 nM | ≤ 1 nM | C=CC(=O)N(C)C1CCCN(c2cnccc2-c2ccc(CNC(=O)c3nc(C(C)(C)C)no3)c(C)c2)C1 (stereo not shown) [Example 13, 3-(tert-butyl)-N-(2-methyl-4-(3-(3-(N-methylacrylamido)piperidin-1-yl)pyridin-4-yl)benzyl)-1,2,4-oxadiazole-5-carboxamide]
10 | > 1000 nM | ≤ 1 nM | C=CC(=O)N(C1CC1)[C@@H]1CCCN(c2cnccc2-c2ccc(CNC(=O)c3cn(C(C)(C)C)nn3)c(C)c2)C1 (stereo in doubt) [Example 17, 1-(tert-butyl)-N-(4-(3-(3-(N-cyclopropylacrylamido)piperidin-1-yl)pyridin-4-yl)-2-methylbenzyl)-1H-1,2,3-triazole-4-carboxamide]
11 | 100 to 1000 nM | ≤ 1 nM | Cc1cc(-c2ccncc2N2CCN(C(=O)/C=C/CN(C)C)CC2)ccc1CNC(=O)c1nc(C2(C)CC2)no1 [Example 73, (E)-N-(4-(3-(4-(4-(dimethylamino)but-2-enoyl)piperazin-1-yl)pyridin-4-yl)-2-methylbenzyl)-3-(1-methylcyclopropyl)-1,2,4-oxadiazole-5-carboxamide]
12 | 100 to 1000 nM | 1 to 10 nM | C=CC(=O)N(C)C1COCCN(c2cnccc2-c2ccc(CNC(=O)c3cn(C(C)(C)C)nn3)c(C)c2)C1 (stereo not shown) [Example 52, 1-(tert-butyl)-N-(2-methyl-4-(3-(6-(N-methylacrylamido)-1,4-oxazepan-4-yl)pyridin-4-yl)benzyl)-1H-1,2,3-triazole-4-carboxamide]
13 | > 1000 nM | 1 to 10 nM | C=CC(=O)N(C)[C@H]1CCC(=O)N(c2cnccc2-c2ccc(CNC(=O)c3nnn(C(C)(C)C)n3)c(C)c2)C1 (single isomer, unassigned) [Example 53 Peak 1]
14 | > 1000 nM | > 10 nM | C=CC(=O)N1CCC[C@@H](c2cnccc2-c2ccc(CNC(=O)c3noc(C4(C)CC4)n3)c(C)c2)C1 (single isomer, unassigned) [Example 28]
15 | 100 to 1000 nM | ≤ 1 nM | C=CC(=O)N(CC)[C@@H]1CCCN(c2cnccc2-c2ccc(CNC(=O)c3cn(C(C)(C)C)nn3)c(C)c2)C1 (stereo in doubt) [Example 16, 1-(tert-butyl)-N-(4-(3-(3-(N-ethylacrylamido)piperidin-1-yl)pyridin-4-yl)-2-methylbenzyl)-1H-1,2,3-triazole-4-carboxamide]
16 | > 1000 nM | 1 to 10 nM | C=CC(=O)N1CCC[C@H](c2cnccc2-c2ccc(CNC(=O)c3nc(C4(C)CC4)no3)c(C)c2)C1 (single isomer, unassigned) [Example 30]
17 | < 100 nM | ≤ 1 nM | Cc1cc(-c2ncncc2N2CCN(C(=O)/C=C/CN(C)C)CC2)ccc1CNC(=O)c1noc(C(C)(C)C)n1 [Example 82, (E)-5-(tert-butyl)-N-(4-(5-(4-(4-(dimethylamino)but-2-enoyl)piperazin-1-yl)pyrimidin-4-yl)-2-methylbenzyl)-1,2,4-oxadiazole-3-carboxamide]
18 | 100 to 1000 nM | ≤ 1 nM | C=CC(=O)N1CCN(c2cnccc2-c2ccc(CNC(=O)c3cn(C(C)(C)C)nn3)c(C)c2)CC1 [Example 49, N-(4-(3-(4-acryloylpiperazin-1-yl)pyridin-4-yl)-2-methylbenzyl)-1-(tert-butyl)-1H-1,2,3-triazole-4-carboxamide]
19 | 100 to 1000 nM | ≤ 1 nM | C=CC(=O)N(C)[C@@H]1CCCN(c2cncc(F)c2-c2ccc(CNC(=O)c3cn(C(C)(C)C)nn3)c(C)c2)C1 [Example 56, 1-tert-butyl-N-[[4-[3-fluoro-5-[(3R)-3-[methyl(prop-2-enoyl)amino]-1-piperidyl]-4-pyridyl]-2-methyl-phenyl]methyl]triazole-4-carboxamide]
20 | 100 to 1000 nM | 1 to 10 nM | C=CC(=O)N1CCC(c2cnccc2-c2ccc(CNC(=O)c3nc(C(C)(C)C)no3)c(C)c2)CC1 [Example 36, N-(4-(3-(1-acryloylpiperidin-4-yl)pyridin-4-yl)-2-methylbenzyl)-3-(tert-butyl)-1,2,4-oxadiazole-5-carboxamide]
21 | > 1000 nM | 1 to 10 nM | C=CC(=O)N1CCCC(c2cnccc2-c2ccc(CNC(=O)c3cn(C(C)(C)C)nn3)c(C)c2)C1 (stereo not shown) [Example 23, N-(4-(3-(1-acryloylpiperidin-3-yl)pyridin-4-yl)-2-methylbenzyl)-1-(tert-butyl)-1H-1,2,3-triazole-4-carboxamide]
22 | 100 to 1000 nM | ≤ 1 nM | C=CC(=O)N(C)[C@@H]1CCCN(c2cnccc2-c2ccc(CNC(=O)c3noc(C(C)(C)C)n3)c(C)c2F)C1 (stereo in doubt) [Example 19, 5-(tert-butyl)-N-(3-fluoro-2-methyl-4-(3-(3-(N-methylacrylamido)piperidin-1-yl)pyridin-4-yl)benzyl)-1,2,4-oxadiazole-3-carboxamide]
23 | 100 to 1000 nM | 1 to 10 nM | C=CC(=O)N(C)C1CCN(c2cnccc2-c2ccc(CNC(=O)c3cn(C(C)(C)C)nn3)c(C)c2)C1 (stereo not shown) [Example 2, 1-(tert-butyl)-N-(2-methyl-4-(3-(3-(N-methylacrylamido)pyrrolidin-1-yl)pyridin-4-yl)benzyl)-1H-1,2,3-triazole-4-carboxamide]
